Test results from ChEMBL document CHEMBL4002617, “Antifungal activity of substituted aurones” (Bioorg Med Chem Lett, 2017).
Activity calls are given as the source filed them. The rule behind the calls is not given here.

Columns and labels:
Assay type in all cases: functional
Candida albicans [1] = assay: Antifungal activity against Candida albicans ATCC 90028 after 24 hrs by PrestoBlue dye based microdilution broth assay; conditions: ATCC 90028, 24 h
Candida tropicalis = assay: Antifungal activity against Candida tropicalis ATCC 750 after 24 hrs by PrestoBlue dye based microdilution broth assay; conditions: ATCC 750, 24 h
Nakaseomyces glabratus = assay: Antifungal activity against Candida glabrata ATCC 66032 after 24 hrs by PrestoBlue dye based microdilution broth assay; conditions: ATCC 66032, 24 h
Candida albicans [2] = assay: Antibiofilm activity against Candida albicans ATCC 90028 intermediate phase biofilm at antifungal IC50 to IC99 after 24 hrs by calcofluor white dye based fluorescent microscopic analysis
Candida albicans [3] = assay: Antifungal activity against Candida albicans ATCC 90028 at 100 uM after 24 hrs by PrestoBlue dye based microdilution broth assay relative to control; conditions: ATCC 90028, 24 h
Candida albicans [4] = assay: Antibiofilm activity against Candida albicans ATCC 90028 intermediate phase biofilm at 2 ug/ml after 24 hrs by calcofluor white dye based fluorescent microscopic analysis
Candida albicans [5] = assay: Antibiofilm activity against Candida albicans ATCC 90028 intermediate phase biofilm at 100 ug/ml after 24 hrs by calcofluor white dye based fluorescent microscopic analysis
Candida albicans [6] = assay: Antibiofilm activity against Candida albicans ATCC 90028 intermediate phase biofilm at 16 ug/ml after 24 hrs by calcofluor white dye based fluorescent microscopic analysis

SMILES	inhibition at 100 µM (Candida albicans [3])	also measured
O=C1/C(=C/c2ccccn2)Oc2ccccc21		IC50 (Candida albicans [1]): 18 µM; IC50 (Candida tropicalis): 12 µM; IC50 (Nakaseomyces glabratus): 10 µM; Activity (Candida albicans [2]): inactive
COc1ccc(/C=C2\Oc3ccccc3C2=O)cc1OC [3',4'-DIMETHOXY-AURONE]	14.2%	
O=C1/C(=C/c2cccs2)Oc2c1ccc(O)c2O	26%	
COc1cccc(/C=C2\Oc3ccccc3C2=O)c1O	16.7%	
O=C1/C(=C/c2ccccc2O)Oc2ccccc21	1%	
COc1cc(Br)c(/C=C2\Oc3ccccc3C2=O)cc1OC	12.5%	
COc1ccc(/C=C2\Oc3cc(O)ccc3C2=O)cc1O	40%	
COc1cc(/C=C2\Oc3ccccc3C2=O)ccc1O	11.2%	
O=C1/C(=C/c2ccc[nH]2)Oc2c1ccc(O)c2O	27.5%	
C[C@@H]1[C@H](O)[C@@H](C)/C=C/C=C/C=C/C=C/C=C/C=C/C=C/[C@H](O[C@@H]2O[C@H](C)[C@@H](O)[C@H](N)[C@@H]2O)C[C@@H]2O[C@](O)(C[C@@H](O)C[C@@H](O)[C@H](O)CC[C@@H](O)C[C@@H](O)CC(=O)O[C@H]1C)C[C@H](O)[C@H]2C(=O)O		Activity (Candida albicans [4]): Active
COc1ccc(/C=C2\Oc3ccccc3C2=O)cc1O	45.6%	
O=C1/C(=C/c2ccc[nH]2)Oc2ccccc21	78.8%	
O=C1/C(=C/c2ncc[nH]2)Oc2ccccc21	43.9%	
COc1ccc(/C=C2\Oc3c(ccc(O)c3O)C2=O)cc1O	99.4%	Activity (Candida albicans [5]): Active; IC50 (Candida albicans [1]): 16 µM; IC99 (Candida albicans [1]): 100 µM; Activity (Candida albicans [6]): inactive; IC50 (Candida tropicalis): 10 µM; IC50 (Nakaseomyces glabratus): 11 µM
